Laboratory results: patent US7750003B2, “Compounds-943” (AstraZeneca AB, priority 2006, dated 2010)

Each compound was assayed on phosphorylation of Serine 473 in Akt in MDA-MB-468 human breast adenocarcinoma cells (assay: In vitro phospho-Ser473 Akt assay (Test (c))). Conditions: Homo sapiens, MDA-MB-468, 2 h, MDA-MB-468 cells, 2 hours incubation; read-out: Test (c): IC50 versus Serine 473 in Akt.
Type: cell-based
Outline: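 MDA-MB-468 cells (15000/well, adhered overnight) treated with compound for 2 h at 37 °C, 5% CO2. After formaldehyde fixation, permeabilisation and blocking, phospho-Akt Ser473 immunostained with Alexafluor488 secondary and quantified by laser-scanning imaging (Acumen Explorer); IC50 from fluorescence dose–response.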
Work on `CC(C)NC(=O)Nc1ccc(-c2nc(CS(=O)(=O)C(C)C)cc(N3CCOC[C@@H]3C)n2)cc1` [Example 60f, 1-[4-[4-[(3S)-3-methylmorpholin-4-yl]-6-(propan-2-ylsulfonylmethyl)pyrimidin-2-yl]phenyl]-3-propan-2-yl-urea] yielded an IC50 of 0.87 µM.
`CC(C)S(=O)(=O)Cc1cc(N2CCOC[C@@H]2C)nc(-c2ccc(NC(=O)NC(C)(C)CO)cc2)n1` [Example 60g, 3-(1-hydroxy-2-methyl-propan-2-yl)-1-[4-[4-[(3S)-3-methylmorpholin-4-yl]-6-(propan-2-ylsulfonylmethyl)pyrimidin-2-yl]phenyl]urea] showed an IC50 of 0.22 µM.
`CC(C)S(=O)(=O)Cc1cc(N2CCOC[C@@H]2C)nc(-c2ccc(NC(=O)Nc3cnn(C)c3)cc2)n1` [Example 60h, 1-[4-[4-[(3S)-3-methylmorpholin-4-yl]-6-(propan-2-ylsulfonylmethyl)pyrimidin-2-yl]phenyl]-3-(1-methylpyrazol-4-yl)urea] was tested, and the IC50 was 1.9 µM.
Compound `CNC(=O)Nc1ccc(-c2nc(N3CCOC[C@@H]3C)cc(C(C)(C)S(=O)(=O)C(C)C)n2)cc1` [Example 60i, 3-methyl-1-[4-[4-[(3S)-3-methylmorpholin-4-yl]-6-(2-propan-2-ylsulfonylpropan-2-yl)pyrimidin-2-yl]phenyl]urea] has an IC50 of 0.12 µM.
`CCNC(=O)Nc1ccc(-c2nc(N3CCOC[C@@H]3C)cc(C(C)(C)S(=O)(=O)C(C)C)n2)cc1` [Example 60j, 1-ethyl-3-[4-[4-[(3S)-3-methylmorpholin-4-yl]-6-(2-propan-2-ylsulfonylpropan-2-yl)pyrimidin-2-yl]phenyl]urea] was tested, and the IC50 was 0.19 µM.
Work on `CC(C)NC(=O)Nc1ccc(-c2nc(N3CCOC[C@@H]3C)cc(C(C)(C)S(=O)(=O)C(C)C)n2)cc1` [Example 60k, 1-[4-[4-[(3S)-3-methylmorpholin-4-yl]-6-(2-propan-2-ylsulfonyl-propan-2-yl)pyrimidin-2-yl]phenyl]-3-propan-2-yl-urea] yielded an IC50 of 0.18 µM.
With `CC(C)S(=O)(=O)C(C)(C)c1cc(N2CCOC[C@@H]2C)nc(-c2ccc(NC(=O)NC3CC3)cc2)n1` [Example 60l, 3-cyclopropyl-1-[4-[4-[(3S)-3-methylmorpholin-4-yl]-6-(2-propan-2-ylsulfonylpropan-2-yl)pyrimidin-2-yl]phenyl]urea] the IC50 was 0.064 µM.
In the case of `CC(C)S(=O)(=O)C(C)(C)c1cc(N2CCOC[C@@H]2C)nc(-c2ccc(NC(=O)NC3CCC3)cc2)n1` [Example 60m, 3-cyclobutyl-1-[4-[4-[(3S)-3-methylmorpholin-4-yl]-6-(2-propan-2-ylsulfonylpropan-2-yl)pyrimidin-2-yl]phenyl]urea], the IC50 is reported as 0.059 µM.
With `CC(C)S(=O)(=O)C(C)(C)c1cc(N2CCOC[C@@H]2C)nc(-c2ccc(NC(=O)NCCO)cc2)n1` [Example 60n, 3-(2-hydroxyethyl)-1-[4-[4-[(3S)-3-methylmorpholin-4-yl]-6-(2-propan-2-ylsulfonylpropan-2-yl)pyrimidin-2-yl]phenyl]urea] the IC50 was 0.15 µM.
Work on `CC(C)S(=O)(=O)C(C)(C)c1cc(N2CCOC[C@@H]2C)nc(-c2ccc(NC(=O)NC(C)(C)CO)cc2)n1` [Example 60o, 3-(1-hydroxy-2-methyl-propan-2-yl)-1-[4-[4-[(3S)-3-methylmorpholin-4-yl]-6-(2-propan-2-ylsulfonylpropan-2-yl)pyrimidin-2-yl]phenyl]urea] yielded an IC50 of 0.086 µM.
`CC(C)S(=O)(=O)C(C)(C)c1cc(N2CCOC[C@@H]2C)nc(-c2ccc(NC(=O)NCCN(C)C)cc2)n1` [Example 60p, 3-(2-dimethylaminoethyl)-1-[4-[4-[(3S)-3-methylmorpholin-4-yl]-6-(2-propan-2-ylsulfonylpropan-2-yl)pyrimidin-2-yl]phenyl]urea] showed an IC50 of 0.14 µM.
Compound `CCCNC(=O)Nc1ccc(-c2nc(N3CCOC[C@@H]3C)cc(C(C)(C)S(=O)(=O)C(C)C)n2)cc1` [Example 60q, 3-[4-[4-[(3S)-3-methylmorpholin-4-yl]-6-(2-propan-2-ylsulfonylpropan-2-yl)pyrimidin-2-yl]phenyl]-1-propyl-urea] has an IC50 of 0.16 µM.
For `CC(C)CNC(=O)Nc1ccc(-c2nc(N3CCOC[C@@H]3C)cc(C(C)(C)S(=O)(=O)C(C)C)n2)cc1` [Example 60r, 1-[4-[4-[(3S)-3-methylmorpholin-4-yl]-6-(2-propan-2-ylsulfonylpropan-2-yl)pyrimidin-2-yl]phenyl]-3-(2-methylpropyl)urea], the IC50 was 0.21 µM.
In the case of `CC(C)S(=O)(=O)C(C)(C)c1cc(N2CCOC[C@@H]2C)nc(-c2ccc(NC(=O)NCCCO)cc2)n1` [Example 60s, 3-(3-hydroxypropyl)-1-[4-[4-[(3S)-3-methylmorpholin-4-yl]-6-(2-propan-2-ylsulfonylpropan-2-yl)pyrimidin-2-yl]phenyl]urea], the IC50 is reported as 0.3 µM.
For `CC(C)S(=O)(=O)C(C)(C)c1cc(N2CCOC[C@@H]2C)nc(-c2ccc(NC(=O)Nc3ccc(C(F)(F)F)cc3)cc2)n1` [Example 60t, 1-[4-[4-[(3S)-3-methylmorpholin-4-yl]-6-(2-propan-2-ylsulfonylpropan-2-yl)pyrimidin-2-yl]phenyl]-3-[4-(trifluoromethyl)phenyl]urea], the IC50 was 1.4 µM.
`CC(C)S(=O)(=O)C(C)(C)c1cc(N2CCOC[C@@H]2C)nc(-c2ccc(NC(=O)Nc3cnn(C)c3)cc2)n1` [Example 60v, 1-[4-[4-[(3S)-3-methylmorpholin-4-yl]-6-(2-propan-2-ylsulfonylpropan-2-yl)pyrimidin-2-yl]phenyl]-3-(1-methylpyrazol-4-yl)urea] gave an IC50 of 0.27 µM.
`C[C@H]1COCCN1c1cc(CS(=O)(=O)c2ccc(F)cc2)nc(-c2ccc(NC(=O)NC3CCC3)cc2)n1` [Example 61, 3-Cyclobutyl-1-[4-[4-[(4-fluorophenyl)sulfonylmethyl]-6-[(3S)-3-methylmorpholin-4-yl]pyrimidin-2-yl]phenyl]urea] showed an IC50 of 0.33 µM.
In the case of `CCNC(=O)Nc1ccc(-c2nc(CS(=O)(=O)c3ccc(F)cc3)cc(N3CCOC[C@@H]3C)n2)cc1` [Example 61a, 1-ethyl-3-[4-[4-[(4-fluorophenyl)sulfonylmethyl]-6-[(3S)-3-methylmorpholin-4-yl]pyrimidin-2-yl]phenyl]urea], the IC50 is reported as 0.75 µM.
`CC(C)NC(=O)Nc1ccc(-c2nc(CS(=O)(=O)c3ccc(F)cc3)cc(N3CCOC[C@@H]3C)n2)cc1` [Example 61b, 1-[4-[4-[(4-fluorophenyl)sulfonylmethyl]-6-[(3S)-3-methylmorpholin-4-yl]pyrimidin-2-yl]phenyl]-3-propan-2-yl-urea] gave an IC50 of 0.038 µM.
Compound `C[C@H]1COCCN1c1cc(CS(=O)(=O)c2ccc(F)cc2)nc(-c2ccc(NC(=O)NCCO)cc2)n1` [Example 61c, 1-[4-[4-[(4-fluorophenyl)sulfonylmethyl]-6-[(3S)-3-methylmorpholin-4-yl]pyrimidin-2-yl]phenyl]-3-(2-hydroxyethyl)urea] has an IC50 of 0.41 µM.
`C[C@H]1COCCN1c1cc(CS(=O)(=O)c2ccc(F)cc2)nc(-c2ccc(NC(=O)NC(C)(C)CO)cc2)n1` [Example 61d, 1-[4-[4-[(4-fluorophenyl)sulfonylmethyl]-6-[(3S)-3-methylmorpholin-4-yl]pyrimidin-2-yl]phenyl]-3-(1-hydroxy-2-methyl-propan-2-yl)urea] was tested, and the IC50 was 0.18 µM.
`C[C@H]1COCCN1c1cc(CS(=O)(=O)c2ccc(F)cc2)nc(-c2ccc(NC(=O)NCCN(C)C)cc2)n1` [Example 61e, 3-(2-dimethylaminoethyl)-1-[4-[4-[(4-fluorophenyl)sulfonylmethyl]-6-[(3S)-3-methylmorpholin-4-yl]pyrimidin-2-yl]phenyl]urea] was tested, and the IC50 was 0.12 µM.
`CC(C)CNC(=O)Nc1ccc(-c2nc(CS(=O)(=O)c3ccc(F)cc3)cc(N3CCOC[C@@H]3C)n2)cc1` [Example 61g, 1-[4-[4-[(4-fluorophenyl)sulfonylmethyl]-6-[(3S)-3-methylmorpholin-4-yl]pyrimidin-2-yl]phenyl]-3-(2-methylpropyl)urea] gave an IC50 of 0.45 µM.
With `C[C@H]1COCCN1c1cc(CS(=O)(=O)c2ccc(F)cc2)nc(-c2ccc(NC(=O)NCCCO)cc2)n1` [Example 61h, 1-[4-[4-[(4-fluorophenyl)sulfonylmethyl]-6-[(3S)-3-methylmorpholin-4-yl]pyrimidin-2-yl]phenyl]-3-(3-hydroxypropyl)urea] the IC50 was 0.79 µM.
For `CNC(=O)Nc1ccc(-c2nc(N3CCOC[C@@H]3C)cc(C(C)(C)S(=O)(=O)c3ccc(F)cc3)n2)cc1` [Example 61k, 1-[4-[4-[2-(4-fluorophenyl)sulfonylpropan-2-yl]-6-[(3S)-3-methylmorpholin-4-yl]pyrimidin-2-yl]phenyl]-3-methyl-urea], the IC50 was 0.12 µM.
`CCNC(=O)Nc1ccc(-c2nc(N3CCOC[C@@H]3C)cc(C(C)(C)S(=O)(=O)c3ccc(F)cc3)n2)cc1` [Example 61l, 1-ethyl-3-[4-[4-[2-(4-fluorophenyl)sulfonylpropan-2-yl]-6-[(3S)-3-methylmorpholin-4-yl]pyrimidin-2-yl]phenyl]urea] gave an IC50 of 0.099 µM.
Compound `CC(C)NC(=O)Nc1ccc(-c2nc(N3CCOC[C@@H]3C)cc(C(C)(C)S(=O)(=O)c3ccc(F)cc3)n2)cc1` [Example 61m, 1-[4-[4-[2-(4-fluorophenyl)sulfonylpropan-2-yl]-6-[(3S)-3-methylmorpholin-4-yl]pyrimidin-2-yl]phenyl]-3-propan-2-yl-urea] has an IC50 of 0.03 µM.
Compound `C[C@H]1COCCN1c1cc(C(C)(C)S(=O)(=O)c2ccc(F)cc2)nc(-c2ccc(NC(=O)NC3CCC3)cc2)n1` [Example 61n, 3-cyclobutyl-1-[4-[4-[2-(4-fluorophenyl)sulfonylpropan-2-yl]-6-[(3S)-3-methylmorpholin-4-yl]pyrimidin-2-yl]phenyl]urea] has an IC50 of 0.038 µM.
With `C[C@H]1COCCN1c1cc(C(C)(C)S(=O)(=O)c2ccc(F)cc2)nc(-c2ccc(NC(=O)NCCN(C)C)cc2)n1` [Example 61o, 3-(2-dimethylaminoethyl)-1-[4-[4-[2-(4-fluorophenyl)sulfonylpropan-2-yl]-6-[(3S)-3-methylmorpholin-4-yl]pyrimidin-2-yl]phenyl]urea] the IC50 was 0.045 µM.
